Data on 17 compounds can be found in patent publication US12391674B2, “Heterocyclic compounds for the treatment of epilepsy” (OTSUKA PHARMACEUTICAL CO., LTD., priority 2018, dated 2025).

The structures appear in SMILES notation.

Series [1] concerns DBA/2 mice. The series can be described thus: Audiogenic seizure model. The settings on record: Mus musculus, DBA/2 mice, oral, auditory stimulation 1 hour after administration, read-out: Seizure suppression. It is filed as in vivo. The gist of the method:
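Male and female DBA/2 mice (3 weeks old, 8/group) dosed orally at 30 mg/kg in 5% gum arabic; 1 h later exposed to 12.6 kHz, 100-110 dB tone for 1 min or until tonic seizure. Maximum seizure score (0–4) recorded; suppression rate graded A (≥90%), B (70–<90%), C (50–<70%).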

Series [2] has as its system ICR mice. Nature of the series: Rotarod test (motor coordination). It is filed as in vivo, mouse. As to conditions: oral, rotarod 1 hour after administration. The protocol:
This test is performed to evaluate the effect of the compound on the motor coordination. In this test example, the example compounds shown in Table 4 below were used as test compounds. Male ICR mice (Japan SLC, Inc., 5-6 weeks, 8 per group) were trained to remain on a fixed speed (15 rpm) rotating rod of rotarod apparatus (Muromachi Kikai Co., Ltd.) for 2 minutes. […] After 1 hour of oral administration, the mice were again placed on the rod accelerated from 4 rpm to 40 rpm over 5 minutes and the latency to fall off the rod was recorded for 200 seconds. The falling latency of the compound administration group was calculated as a relative value relative to the average value of the falling latency in the solvent administration group. Here, a coordination disorder of 25% or less was expressed as “A”, and a coordination disorder of more than 25% and 50% or less was expressed as “B”.
(In general: In the rotarod test animals must keep their balance on a rotating rod.)

Regarding `Clc1cccc(Oc2ncc(-c3ccc4nccn4c3)cn2)c1` [Example 163, 6-(2-(3-Chlorophenoxy)Pyrimidin-5-Yl) Imidazo[1,2-a]Pyridine], the inhibition in vivo at 5 mg/kg in series [1] was more than 90%. In addition, the Motor dysfunction entry in series [2] (dose 5 mg/kg) is “A (a coordination disorder of 25% or less)”.
With `FC(F)(F)c1cccc(Oc2ncc(-c3ccc4nccn4c3)cn2)c1` [Example 170], the inhibition in vivo at 5 mg/kg in series [1] was more than 90%. The Motor dysfunction result in series [2] (dose 5 mg/kg) is listed as “A (a coordination disorder of 25% or less)”.
For the compound `FC(F)(F)Oc1cccc(Oc2ncc(-c3ccc4nccn4c3)cn2)c1` [Example 171], the inhibition in vivo at 5 mg/kg in series [1] was more than 90%. The Motor dysfunction result in series [2] (dose 5 mg/kg) is reported as “A (a coordination disorder of 25% or less)”.
On to `O=C1Cc2nc(-c3cnc(Oc4ccccc4)nc3)ccc2N1` [Example 172, 5-(2-Phenoxypyrimidin-5-Yl)-1H-Pyrrolo[3,2-b]Pyridin-2 (3H)-One], for which the inhibition in vivo at 5 mg/kg in series [1] was more than 90%. Also, the Motor dysfunction result in series [2] (dose 5 mg/kg) is recorded as “A (a coordination disorder of 25% or less)”.
The corresponding values for `c1ccc(Oc2ncc(-c3ccc4cnnn4c3)cn2)cc1` [Example 173, 6-(2-Phenoxypyrimidin-5-Yl)-[1,2,3]Triazolo[1,5-a]Pyridine] are more than 90% and “A (a coordination disorder of 25% or less)”.
Take `Cc1cn2cc(-c3cnc(Oc4ccccc4)nc3)ccc2n1` [Example 177]: in series [1], the inhibition in vivo at 5 mg/kg was in the range of 70 to 90%. Further, the Motor dysfunction entry in series [2] (dose 5 mg/kg) was “A (a coordination disorder of 25% or less)”.
On the same counts, the results for `Cc1cn2ccc(-c3cnc(Oc4ccccc4)nc3)cc2n1` [Example 181] are 70 to 90% and “A (a coordination disorder of 25% or less)”.
The corresponding values for `c1ccc(Oc2ncc(-c3ccn4nncc4c3)cn2)cc1` [Example 184] are more than 90% and “A (a coordination disorder of 25% or less)”.
For `c1ccc(Oc2ncc(-c3cnc4ncnn4c3)cn2)cc1` [Example 188], in series [1], the inhibition in vivo at 30 mg/kg is more than 90%. Also, the Motor dysfunction result in series [2] (dose 30 mg/kg) was “A (a coordination disorder of 25% or less)”.
With `Cc1cnc2ccc(-c3cnc(Oc4ccccc4)nc3)cn12` [Example 190], the inhibition in vivo at 5 mg/kg in series [1] is more than 90%. Also, the Motor dysfunction entry in series [2] (dose 5 mg/kg) is listed as “A (a coordination disorder of 25% or less)”.
Regarding `Cc1c(-c2cnc(Oc3ccccc3)nc2)ccc2nccn12.Cl` [Example 198, 5-Methyl-6-(2-Phenoxypyrimidin-5-Yl) Imidazo[1,2-a]Pyridine Hydrochloride], the inhibition in vivo at 5 mg/kg in series [1] was more than 90%. For the same compound, in series [2] (dose 5 mg/kg), the Motor dysfunction result is given as “A (a coordination disorder of 25% or less)”.
Turning to `Cc1nc2cc(-c3cnc(Oc4ccccc4)nc3)ccn2c1C` [Example 204], the inhibition in vivo at 30 mg/kg in series [1] is more than 90%. For the same compound, in series [2] (dose 5 mg/kg), the Motor dysfunction result is listed as “A (a coordination disorder of 25% or less)”.
With `c1ccc(Oc2ncc(-c3ccn4cnnc4c3)cn2)cc1` [Example 211], in series [1], the inhibition in vivo at 30 mg/kg was more than 90%. Further, the Motor dysfunction result in series [2] (dose 30 mg/kg) was “B (a coordination disorder of more than 25% and 50% or less)”.
In the case of `FC(F)(F)c1cn2cc(-c3cnc(Oc4ccccc4)nc3)ccc2n1` [Example 214], the inhibition in vivo at 30 mg/kg in series [1] was more than 90%. In series [2] (dose 30 mg/kg), the Motor dysfunction result is “A (a coordination disorder of 25% or less)”.
As to `FC(F)(F)c1cn2ccc(-c3cnc(Oc4ccccc4)nc3)cc2n1` [Example 216], the inhibition in vivo at 5 mg/kg in series [1] is more than 90%. Also, the Motor dysfunction entry in series [2] (dose 5 mg/kg) is “A (a coordination disorder of 25% or less)”.
Turning to `O=C1NCCCN1c1cnc(Oc2ccccc2)nc1` [Example 220, 1-(2-Phenoxypyrimidin-5-Yl)Tetrahydropyrimidin-2 (1H)-One], the inhibition in vivo at 30 mg/kg in series [1] was more than 90%. The Motor dysfunction result in series [2] (dose 30 mg/kg) is reported as “A (a coordination disorder of 25% or less)”.
On to `O=C1CCCCN1c1cnc(Oc2cccc(F)c2)nc1` [Example 222], for which the inhibition in vivo at 30 mg/kg in series [1] was more than 90%. Further, the Motor dysfunction result in series [2] (dose 30 mg/kg) is listed as “A (a coordination disorder of 25% or less)”.
